Entries after “also recorded” stand apart in the source; their conditions may differ. Like-named read-outs stand apart in the source and are kept apart here.
Assays:
SUMO E1 [1] = target: T1, SUMO E1 (Homo sapiens (Human), UniProt Q9UBT2); details: in the presence of Mg2+; read-out: Kd of ATP binding to E1; cited from earlier work
[2] = system: global SUMOylation in HT29, HCT116 and U373 cells; assay: Global SUMOylation in cancer cell lines, Western blot with anti-SUMO2/3 antibodies; assay type: cell-based; details: 18 hours; for inhibition of SUMOylation in cells: various concentrations, HCT116, HT29, U373
Experimental: Western blots (probed with anti-SUMO2/3 antibodies) of cell lysates from HT29, HCT116 and U373 cells treated with compound 1. SUMO2/3 modifies many proteins as poly-SUMO chains, and is detected as high molecular weight smears. 16c indicates the control compound 2 used at concentrations of 16 μM.
Quinoxaline 1 or 2 was added to cell culture media at various concentrations for 18 hours, after which SUMOylated proteins were detected using anti-SUMO antibodies. […] Thus, quinoxaline 1 has potent and specific inhibitory effects in various cancer cell lines.

[3] = system: RanGAP1 stable SUMOylation in U20S and DLD1 cells; assay: Stable SUMOylation, RanGAP1 and RanBP2 localization by immunohistochemistry; assay type: cell-based; details: 18 hours
Experimental: Cells were treated with the compound at indicated concentration for 18 hours, and then localization of RanGAP1 and RanBP2 was detected by immunohistochemistry. Nuclei are stained with DAPI.

SUMO E1 [4] = target: T1, SUMO E1; assay: NMR saturation transfer difference (STD) competition with ATP; assay type: binding
Text: In (A), ATP spectra with assignments indicated, and the percentage of STD effects indicated for each resonance. Red spectrum indicates 2 s saturation at −30 ppm (control), blue spectrum (underneath red) indicates 2 s saturation of protein signals at 0 ppm, and green spectrum (bottom) indicates the difference between the red and blue spectra. […] […] The corresponding STD spectra are color-coded as indicated to the right. A region of the spectrum covering H2 of ATP and H12 and H13 from the compound are shown, with the H2 signal of ATP expanded in the inset. […] The titration data was used to estimate Kd of the compound.

HIV = assay type: cell-based
Fa2N-4 cells = assay: Toxicity on immortalized human hepatocytes, cellular ATP viability assay; assay type: cell-based; details: Fa2N-4, concentrations up to 50 μM, 24 hrs
Experimental: FIG. 9 illustrates the toxicity of the SUMO inhibitor on normal human liver cells. Immortalized human hepatocytes, Fa2N-4 cells (XenoTech) were seeded at ˜50-60K cells/well, and incubated with a range of concentrations (0.01-50 μM) 1, in duplicate, for 24 hrs at 37° C., 5% CO2. Cell viability was determined by cellular ATP levels using the Luminescence ATP Detection Assay System (Tecan).

BRCA1 = BRCA1 colocalization with γH2AX in IR-treated cells; assay type: cell-based; details: 20 μM, 18 hours, 1 Gy
Text: (Green: BRCA1; Red: γH2AX).

53BP1 = 53BP1 colocalization with γH2AX at DSB sites in IR-treated cells; assay type: cell-based; details: 20 μM, 18 hours, 1 Gy, 1 hour recovery
Text: (Green: γH2AX; Red: 53BP1).

ubiquitin E1 = ubiquitin E1 (Homo sapiens (Human), UniProt P22314); details: Ubc5-ubiquitin thioester vs Ubc9-SUMO thioester
[5] = system: MCF7, H1299, DLD1 and SJSA cancer cell lines; assay: Sensitization of cancer cell lines to irradiation, MTS cell survival assay; assay type: cell-based; details: for sensitization of cancer cell lines to radiation: drug 4 hours, then 4 Gy
Experimental: The cells were treated with different doses of the drug for 4 hours, followed by irradiation with 4 Gy and incubation for an additional 68 hours. […] Cell survival was assessed by MTS assays
Quinoxaline 1 was added to cultures of various cancer cell lines for 4 hours, after which cells were irradiated at 4 Gy. Forty-eight hours after irradiation, cell viability was measured by MTS assay.

SUMO E1 [6] = target: T1, SUMO E1; assay: SUMO E1 inhibition, formation of the Ubc9-SUMO thioester (biochemical assay)
[7] = in vitro, read-out: IC50 for SUMO E1

T1 sequence (Q9UBT2 whole entry): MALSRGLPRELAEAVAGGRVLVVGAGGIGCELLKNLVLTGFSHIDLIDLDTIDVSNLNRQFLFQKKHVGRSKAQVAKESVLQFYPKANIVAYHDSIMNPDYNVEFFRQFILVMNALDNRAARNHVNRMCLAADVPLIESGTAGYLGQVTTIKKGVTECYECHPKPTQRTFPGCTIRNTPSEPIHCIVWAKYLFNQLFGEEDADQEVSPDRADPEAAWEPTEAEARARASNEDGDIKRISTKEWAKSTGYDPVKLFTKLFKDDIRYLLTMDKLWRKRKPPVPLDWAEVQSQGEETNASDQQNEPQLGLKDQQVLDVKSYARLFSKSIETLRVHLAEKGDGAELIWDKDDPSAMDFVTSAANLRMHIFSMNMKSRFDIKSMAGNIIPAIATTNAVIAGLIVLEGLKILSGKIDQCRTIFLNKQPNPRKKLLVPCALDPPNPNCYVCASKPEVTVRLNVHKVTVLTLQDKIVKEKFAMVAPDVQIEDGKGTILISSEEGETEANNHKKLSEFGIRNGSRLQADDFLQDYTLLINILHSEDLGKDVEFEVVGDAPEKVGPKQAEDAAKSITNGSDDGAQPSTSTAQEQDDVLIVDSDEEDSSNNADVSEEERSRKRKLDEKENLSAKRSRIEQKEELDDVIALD
T1 sequence (Q9UBE0 whole entry partner): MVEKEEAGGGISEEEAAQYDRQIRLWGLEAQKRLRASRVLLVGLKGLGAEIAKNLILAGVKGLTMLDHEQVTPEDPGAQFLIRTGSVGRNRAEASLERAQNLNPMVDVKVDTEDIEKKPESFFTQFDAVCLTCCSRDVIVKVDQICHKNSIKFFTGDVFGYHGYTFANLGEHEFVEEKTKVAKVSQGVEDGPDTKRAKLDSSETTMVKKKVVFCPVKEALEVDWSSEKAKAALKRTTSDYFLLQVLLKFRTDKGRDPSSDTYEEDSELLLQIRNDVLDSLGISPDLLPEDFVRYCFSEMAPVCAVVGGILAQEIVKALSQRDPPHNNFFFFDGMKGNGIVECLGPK
Chain of ubiquitin E1 (P22314 whole entry, looked up): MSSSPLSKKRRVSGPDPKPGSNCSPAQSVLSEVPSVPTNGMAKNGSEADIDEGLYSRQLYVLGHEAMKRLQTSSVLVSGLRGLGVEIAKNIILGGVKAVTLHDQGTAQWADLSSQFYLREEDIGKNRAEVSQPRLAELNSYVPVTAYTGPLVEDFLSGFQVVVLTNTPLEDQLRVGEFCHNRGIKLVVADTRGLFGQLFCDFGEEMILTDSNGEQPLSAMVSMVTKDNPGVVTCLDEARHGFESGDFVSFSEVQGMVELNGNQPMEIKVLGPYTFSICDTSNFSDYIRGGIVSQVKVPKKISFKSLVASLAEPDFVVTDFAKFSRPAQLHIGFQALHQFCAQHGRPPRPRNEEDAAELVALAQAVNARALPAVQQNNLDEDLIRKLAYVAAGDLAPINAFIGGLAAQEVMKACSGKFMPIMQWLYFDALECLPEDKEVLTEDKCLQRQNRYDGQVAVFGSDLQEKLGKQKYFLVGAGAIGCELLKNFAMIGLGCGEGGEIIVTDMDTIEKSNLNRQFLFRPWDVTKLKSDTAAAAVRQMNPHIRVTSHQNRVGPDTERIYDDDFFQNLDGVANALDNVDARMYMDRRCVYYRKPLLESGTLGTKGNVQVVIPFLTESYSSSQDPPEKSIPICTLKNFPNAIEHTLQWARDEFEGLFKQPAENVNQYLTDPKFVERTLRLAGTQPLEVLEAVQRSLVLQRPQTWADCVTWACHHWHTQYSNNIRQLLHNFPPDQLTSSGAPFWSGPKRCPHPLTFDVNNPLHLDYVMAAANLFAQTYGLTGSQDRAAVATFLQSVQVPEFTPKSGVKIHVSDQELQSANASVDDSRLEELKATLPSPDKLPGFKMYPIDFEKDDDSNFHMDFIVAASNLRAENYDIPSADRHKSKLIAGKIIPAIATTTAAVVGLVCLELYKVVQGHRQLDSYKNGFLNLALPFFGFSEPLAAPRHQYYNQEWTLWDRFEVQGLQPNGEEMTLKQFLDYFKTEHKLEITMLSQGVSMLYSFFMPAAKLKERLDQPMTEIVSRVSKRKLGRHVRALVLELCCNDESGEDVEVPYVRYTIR

Compound: Nc1ncnc2c1ncn2[C@@H]1O[C@H](COP(=O)(O)OP(=O)(O)OP(=O)(O)O)[C@@H](O)[C@H]1O [ATP]
- Kd (SUMO E1 [1]): ~0.2 µM

Compound: CCCCn1c(NS(=O)(=O)c2ccccc2)c(S(=O)(=O)c2ccc(C)cc2)c2nc3ccccc3nc21 [Tricyclic Compound 1]
- inhibition at 16 µM ([2]; 16 μM): > 80%
- inhibition of SUMOylation in cells [2]: inhibits global SUMOylation in a dose-dependent manner
- inhibition of SUMOylation in cells ([2]; listed as Quinoxaline 1): inhibited SUMOylation in a dose-dependent manner
- effect on stable SUMOylation [3]: does not disrupt stable SUMOylation
- competition with ATP binding to E1 (SUMO E1 [4]): strong competition with ATP binding
- reduction in the STD of ATP (SUMO E1 [4]; 30 μM inhibitor, 80 μM ATP, 2 μM E1, 0.4 mM Mg2+): more than 60%
- Kd (SUMO E1 [4]; estimated from competitive STD data, read-out: Kd (inhibitor-enzyme dissociation constant)): ~0.18 µM
- competition with ATP binding to E1 (SUMO E1 [4]; listed as quinoxaline 1): competed with the binding of ATP
- inhibition of HIV infection (HIV): inhibited HIV infection in a dose dependent manner; also recorded: inhibits HIV infection in a dose-dependent manner
- toxicity to human hepatocytes (Fa2N-4 cells): did not cause significant toxicity
- toxicity to human hepatocytes (Fa2N-4 cells; listed as Quinoxaline 1): no toxicity was detected
- BRCA1 colocalization with γH2AX (BRCA1; DLD1 cells, 1 hour recovery): inhibits BRCA1 colocalization with γH2AX
- BRCA1 colocalization with γH2AX (BRCA1; U20S cells, 1 hour): inhibits BRCA1 colocalization with γH2AX
- 53BP1 colocalization with γH2AX (53BP1; DLD1 cells): inhibits 53BP1 colocalization with γH2AX
- 53BP1 colocalization with γH2AX (53BP1; U20S cells): inhibits 53BP1 colocalization with γH2AX
- IC50 for ubiquitin E1 relative to SUMO E1 (selectivity) (ubiquitin E1): > 100 fold
- IC50 for ubiquitin E1 relative to SUMO E1 (selectivity) (ubiquitin E1; listed as quinoxaline 1): more than 100 fold
- toxicity in cancer cell lines [5]: induced some toxicity in selected cancer cell lines
- sensitization of cancer cell lines to radiation ([5]; listed as MLS-0207587): significantly lower survival rate
- sensitization of cancer cell lines to radiation ([5]; listed as Quinoxaline 1): significantly enhanced the sensitivity
- IC50 (SUMO E1 [6]; in vitro, listed as compound 1, read-out: IC50 for SUMO E1): ~0.5 µM
- IC50 (SUMO E1 [6]; [7]): 0.5 µM

Compound: CCCCn1c(NC(=O)c2ccccc2Cl)c(C#N)c2nc3ccccc3nc21 [Tricyclic Compound 2]
- IC50 (SUMO E1 [6]; [7]): 20 µM

Compound: CCCCn1c(NC(=O)c2ccccc2)c(C#N)c2nc3ccccc3nc21 [Tricyclic Compound 3]
- IC50 (SUMO E1 [6]; [7]): 3.6 µM

Compound: CCCCn1c(NC(C)=O)c(C#N)c2nc3ccccc3nc21 [Tricyclic Compound 4]
- IC50 (SUMO E1 [6]; [7]): 8.3 µM

Compound: N#Cc1c(NC(=O)c2ccccc2Cl)n(Cc2ccccc2)c2nc3ccccc3nc12 [Tricyclic Compound 5]
- IC50 (SUMO E1 [6]; [7]): 25 µM

Compound: CCCCn1c(N)c(S(=O)(=O)c2ccccc2)c2nc3ccccc3nc21 [Tricyclic Compound 6]
- IC50 (SUMO E1 [6]; [7]): 64 µM

Compound: CCCCn1c(NC(=O)c2ccccc2)c(S(=O)(=O)c2ccccc2)c2nc3ccccc3nc21 [Tricyclic Compound 7]
- IC50 (SUMO E1 [6]; [7]): 98 µM

Compound: CCCCn1c(NC(=O)c2ccc(Cl)cc2)c(C#N)c2nc3cc(C)c(C)cc3nc21 [Tricyclic Compound 8]
- IC50 (SUMO E1 [6]; [7]): 4.5 µM

Compound: CCCCNC(=O)c1c(NC(=O)c2ccccc2Cl)n(Cc2ccccc2)c2nc3ccccc3nc12 [Tricyclic Compound 9]
- IC50 (SUMO E1 [6]; [7]): 1.1 µM

Compound: CCCCn1c(NC(=O)c2ccco2)c(C#N)c2nc3ccccc3nc21 [Tricyclic Compound 10]
- IC50 (SUMO E1 [6]; [7]): 5.7 µM

Compound: CCCCn1c(NC(=O)c2ccccc2Cl)c(S(=O)(=O)c2ccccc2)c2nc3ccccc3nc21 [Tricyclic Compound 11]
- IC50 (SUMO E1 [6]; [7]): > 100 µM

Compound: C=CCn1c(NS(=O)(=O)c2ccccc2)c(S(=O)(=O)c2ccc(C)cc2)c2nc3ccccc3nc21 [Tricyclic Compound 12]
- IC50 (SUMO E1 [6]; [7]): 0.5 µM

Compound: CCCCn1c(NC(=O)c2ccc(F)cc2)c(C#N)c2nc3ccccc3nc21 [Tricyclic Compound 13]
- IC50 (SUMO E1 [6]; -BSA, read-out: IC50(-BSA)): 0.76 µM

Reference: US9045483B2, “Inhibition of small ubiquitin-like modifier enzymes with substituted pyrrolo[2,3-b]quinoxalines” (City of Hope, priority 2010, dated 2015)
